“Also recorded” adds a separate entry of the source.
Test system: left motor cortex
Assay: Interleaved TMS/phMRI (BOLD fMRI) with TMS over motor cortex
Assay type: in vivo, human
Settings: for Voxels, effect of LTG (between day) / Z-score, effect of LTG (between day): Motor Cortex Stimulation, Placebo-LTG; for Z-score, effect of LTG (between day): p < .001
Method: Study design: We performed a randomized, double-blind, crossover trial involving two visits at least one week apart (FIG. 8). […] Serum LTG levels, RMTs, and interleaved TMS/phMRI images during both motor and then prefrontal TMS were then gathered for each subject. One week later they received LTG or placebo again, followed by identical RMT and interleaved TMS/phMRI studies.
Combined TMS and MRI: Immediately following RMT determination, interleaved TMS/phMRI acquisitions were performed in a Picker EDGE 1.5 T MR scanner with actively shielded magnet and high-performance gradients (27 mT/m, 72 T/m/sec) using a typical gradient echo, echo planar imaging (EPI) fMRI sequence (tip angle=90, TR=3 sec, FOV 27.0 cm, fifteen 7 mm thick slices, 1 mm gap). TMS was delivered using a Dantec MagPro with a special nonferromagnetic TMS coil of figure-8 design with an 8-meter cable (Dantec Medical A/S, Skovlunde, Denmark) and a room set up identical to prior TMS/fMRI studies from our group. TMS pulses and the fMRI sequence were interleaved as described before^21. Each cycle, illustrated in FIG. 9, consisted of six 21-sec sub-cycles—four Test and two task (100% RMT stimulation and 120% RMT stimulation). During each sub-cycle, the scanner acquired seven sets of 15 transverse images. During the task sub-cycles the TMS was triggered 100 ms after every […] image acquisition to produce a TMS stimulation rate of 1 Hz. The entire TMS/fMRI sequence lasted 882 sec (14.7 min).
TMS Coil Placement in the MRI scanner: Motor cortex: Before being placed into the MRI scanner, subjects had their resting motor threshold (RMT) quickly determined with the Dantec TMS while sitting on the MRI gantry. For many reasons (different capacitors, coil design, length of cable, MRI filter), the RMT determined with the Magstim in the BSL was not the same RMT needed inside the MRI scanner with the Dantec. After this new MRI RMT was determined, the TMS coil was rigidly mounted in the MR head coil with a specially designed TMS coil-holder, adjustable in six dimensions^22. Subjects wore swim caps and special earplugs. With the head coil on the gantry outside the scanner bore, subjects inserted their head into the head coil and adjusted their position while the TMS coil was intermittently pulsed with 100% RMT. Subjects adjusted their head until pulsing the coil caused visible movement of the contralateral (right) hand APB (3 out of 6). As soon as a subject's new MRI RMT-correct scalp location was determined, the holder's six dimensions and earplugs were locked. These head holder settings and RMT were recorded and used with the second visit. During the second MRI visit a week later, the headholder was set with the previous week's coordinates for that subject, and the previous RMT was used for the second visit.
Individual fMRI Data Analyses: MR scans were transferred into ANALYZE format and then further processed on Sun workstations (Sun Microsystems, Palo Alto, Calif.). Scans were checked using MEDx3.3 (Sensor Systems Inc, Sterling, Va.) for movement across runs, and then were coregistered to a mean image using automatic image registration. For all subjects, movement across the 14.7-minute study was less than 2 mm in all 3 axes. After correction of motion, we used a delayed boxcar model, employed a high-pass filter to remove signal drift, cardiac and respiratory effects, and other low frequency artifacts. Then, we spatially transformed each subject's data into the Talairach Atlas (input voxel dimensions, 2.1×2.1×8 mm, to output voxel dimensions, 4×4×4 mm), smoothed (4×2 mm) the data and generated z map with the Statistical Parametric Mapping (SPM) 96 module in MEDx3.3. We assumed an uncorrected F threshold UF P>0.99 to preserve as many voxels as possible for the cluster analysis.
Group fMRI Data Analyses: All subject's unthresholded z maps were combined based on comparison of condition (TMS vs Rest), intensity (100% RMT-TMS vs 120% RMT-TMS), visit (LTG vs Placebo). […]

Nc1nnc(-c2cccc(Cl)c2Cl)c(N)n1 [LTG, Lamotrigine]
number of active voxels in the motor cortex underneath the TMS coil, compared with placebo (120% RMT minus rest over motor cortex, 10 subjects, Wilcoxon p=0.05): significantly decreased
Z-score, region of activation (LTG day, within day, n = 10, 100% RMT-Rest, Left cingulate gyrus (BA 32), Talairach −4,32,28): 3.97
Z-score, region of activation (LTG day, within day, n = 10, 100% RMT-Rest, Left insula (BA 13), Talairach −36,20,12): 3.98
Z-score, region of activation (LTG day, within day, n = 10, 100% RMT-Rest, Left middle frontal gyrus (BA 46), Talairach −44,40,24): 4.59
Z-score, region of activation (LTG day, within day, n = 10, 100% RMT-Rest, Right insula (BA 13), Talairach 36,8,12): 4.26
Z-score, region of activation (LTG day, within day, n = 10, 100% RMT-Rest, Right middle frontal gyrus (BA 6), Talairach 32,8,52): 4.06
Z-score, region of activation (LTG day, within day, n = 10, 100% RMT-Rest, Right postcentral gyrus (BA 3), Talairach 52,−16,40): 3.18
Z-score, region of activation (LTG day, within day, n = 10, 100% RMT-Rest, Right precentral gyrus, Talairach 40,−4,32): 4.31
Region of activation (LTG day, within day, n = 10, 120% RMT-100%): No activity
Z-score, region of activation (LTG day, within day, n = 10, 120% RMT-Rest, Left medial frontal gyrus (BA 6), Talairach −4,60,0): 4.06
Z-score, region of activation (LTG day, within day, n = 10, 120% RMT-Rest, Left postcentral gyrus (BA 2), Talairach −36,0,4): 4.60
Z-score, region of activation (LTG day, within day, n = 10, 120% RMT-Rest, Left superior temporal gyrus, Talairach −60,8,24): 3.14
Z-score, region of activation (LTG day, within day, n = 10, 120% RMT-Rest, Left thalamus, Talairach −32,8,−24): 6.46
Z-score, region of activation (LTG day, within day, n = 10, 120% RMT-Rest, Right cingulate gyrus, Talairach 4,28,−16): 4.33
Z-score, region of activation (LTG day, within day, n = 10, 120% RMT-Rest, Right middle frontal gyrus (BA 9), Talairach 48,36,12): 4.62
Z-score, region of activation (LTG day, within day, n = 10, 120% RMT-Rest, Right superior temporal gyrus (BA 38), Talairach 40,−12,4): 3.14
Voxels, effect of LTG (between day) (Cerebellum, Right): 70
Z-score, effect of LTG (between day) (Cerebellum, Right, Talairach 13,−46,−23): 3.34
Voxels, effect of LTG (between day) (Left Precentral gyrus (underneath TMS coil)): 82
Z-score, effect of LTG (between day) (Left Precentral gyrus (underneath TMS coil), Talairach −32,−24,52): 3.87
Voxels, effect of LTG (between day) (Posterior Cingulate, Left): 93
Z-score, effect of LTG (between day) (Posterior Cingulate, Left, Talairach −1,−25,50): 3.95
Voxels, effect of LTG (between day) (Precuneus, Left): 132
Z-score, effect of LTG (between day) (Precuneus, Left, Talairach −1,−62,50): 3.48
TMS-induced activation in the motor cortex (underneath the coil) and other regions, compared to placebo (formal between-day analysis, group data in 10 subjects): significantly less; also recorded: reduced
% BOLD signal change in motor cortex compared with placebo (left primary motor cortex beneath the coil, 10 subjects, ANOVA F=11.89, p=0.007): significantly decreased
